Measurements as given in patent US20250084039A1, “4-SUBSTITUTED AMINOISOQUINOLINE DERIVATIVES” (Purdue Research Foundation, priority 2016, published 2025).
Like-named read-outs stand apart in the source and are kept apart here.

Experiments:
[1] = tested on: MV4-11; experiment: Activity against AML cell line MV4-11 (CellTiter-Blue, 72 h); format: cell-based
Method in brief: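 Suspension cells seeded at 4000 per well, left overnight, then exposed to compound from 10 nM to 100 μM for 72 h. Viability by CellTiter-Blue resazurin fluorescence after 4 h (Ex 560, Em 590); IC50 from concentration-response.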

[2] = tested on: MV4-11; experiment: Proliferation inhibition screen at 100 nM; format: cell-based; conditions: 100 nM compound, FIG. 10
Procedure: To determine inhibition at 100 nM or […], 96-well plates were seeded the afternoon before treatment. Plates were then treated with compound diluted in dimethyl sulfoxide (DMSO) as well as a DMSO control the following day for 72 hours. After this time the plates were then treated with 10 μL of CellTiter-Blue Cell Viability Assay (Promega, Madison, WI) for 4 hours. Then the plates were read on a plate reader (Bio-Tek, Winooski, VT). Data was analyzed on Excel as a percent of the DMSO vehicle.
From these cell proliferation studies, MV4-11 appeared to be more sensitive to the compounds than the other cell lines (Table 6A). […] To identify group of compounds potently inhibiting cancer cell proliferation, a lower concentration of compounds (100 nM) were used to screen against MV4-11 (FIG. 10). From these experiments, potent amide compounds A7, A10, A15, A16, A18, A20, B15 and D30 (as indicated by ***, FIG. 10) were selected. […] Typically amides that contain basic amines are included in compound libraries to improve aqueous solubility but it appears that the presence of a basic amine in the side chain of the compounds also facilitated the actual inhibition of MV4-11 proliferation.

[3] = tested on: STAT3 phosphorylation; experiment: Western blot in MV4-11; format: cell-based, human
Procedure: (§1) Effect of HSW630-1 on protein expression was tested in the MV4-11 leukemia cell line. Total protein extracts were prepared using RIPA buffer (SIGMA) supplemented with Complete Mini™ protease inhibitor and PHOStop™ phosphatase inhibitors (Roche). Equal amounts of proteins (up to 25 μg) were separated on 4-12% NuPAGE gels in 1×MOPS or 1×MES buffer (Invitrogen) and transferred onto PVDF membranes (Millipore). The membrane was blocked with 5% dry milk in 1×TBS/0.1% Tween 20 (TBST) for at least 1 h at room temperature and incubated with human specific primary antibodies: FLT3, Phospho-FLT3, c-Myc (Cell Signaling Technologies), KRAS (Santa Cruz), or mouse anti-β-actin (SIGMA) overnight at 4° C. The membrane was washed 3 times in TBST and incubated with a horseradish peroxidase-conjugated secondary anti-rabbit or anti-mouse antibody (Cell Signaling Technologies) for 1 h at room temperature. Blots were again washed and the signal was detected with SuperSignal West Femto Chemiluminescent Substrate (Pierce) and exposed to HyBlot CL® autoradiography film (Denville).
(§2) To determine if the phosphorylation of FLT3, SRC kinase and downstream effectors or kinases (such as STAT3 [44], STAT5 [45] and p-38 [46]) could be affected by the compounds. […] The level of SRC kinase increased over time (amount at the 48 h time point is greater than at the 6 and 24 h time points). Unfortunately the bands for the phosphorylated SRC kinase are blurred despite repeated attempts to get clearer bands. […] From the above Western analyses, it is confirmed that the proliferation inhibition of MV4-11 is due to the inhibition of FLT3 signaling axis.

[4] = tested on: STAT5 phosphorylation; experiment: Western blot in MV4-11; format: cell-based, human
Procedure: as §1, §2

[5] = tested on: p-38 phosphorylation; experiment: Western blot in MV4-11; format: cell-based, human
Procedure: as §1, §2

[6] = tested on: FLT3 phosphorylation; experiment: Western blot in MV4-11; format: cell-based, human
Procedure: Total protein extracts were prepared using RIPA buffer (SIGMA) supplemented with Complete Mini™ protease inhibitor and PHOStop™ phosphatase inhibitors (Roche). […] The membrane was blocked with 5% dry milk in 1×TBS/0.1% Tween 20 (TBST) for at least 1 h at room temperature and incubated with human specific primary antibodies: FLT3, Phospho-FLT3, c-Myc (Cell Signaling Technologies), KRAS (Santa Cruz), or mouse anti-β-actin (SIGMA) overnight at 4° C. The membrane was washed 3 times in TBST and incubated with a horseradish peroxidase-conjugated secondary anti-rabbit or anti-mouse antibody (Cell Signaling Technologies) for 1 h at room temperature. Blots were again washed and the signal was detected with SuperSignal West Femto Chemiluminescent Substrate (Pierce) and exposed to HyBlot CL® autoradiography film (Denville).

[7] = target: CDK9 (Homo sapiens (Human), UniProt P50750); experiment: DiscoverX Kd Elect binding
Sequence of CDK9 (P50750 whole entry): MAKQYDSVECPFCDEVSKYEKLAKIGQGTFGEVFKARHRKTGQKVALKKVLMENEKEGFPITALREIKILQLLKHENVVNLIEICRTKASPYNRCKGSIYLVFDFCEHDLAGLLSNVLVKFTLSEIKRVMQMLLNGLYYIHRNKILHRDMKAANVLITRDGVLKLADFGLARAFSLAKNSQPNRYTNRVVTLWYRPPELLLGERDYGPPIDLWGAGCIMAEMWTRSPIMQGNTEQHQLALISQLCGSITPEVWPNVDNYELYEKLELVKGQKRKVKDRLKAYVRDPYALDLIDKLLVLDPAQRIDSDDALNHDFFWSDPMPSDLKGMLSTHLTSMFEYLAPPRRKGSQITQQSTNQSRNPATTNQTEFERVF
Procedure: HCK is expressed more in human primary leukemic stem cells than in human normal hematopoietic stem cells. […] Other protein kinases such as SYK, BRAF, p38 (p38MAPK), PDGFRα/β, FGFR1, RET, FLT4, Tie2 have also been linked to leukemia. […] Thus, it was tested if HSN286 and analogs were also targeting kinases that play critical roles in AML. […] (Table 9). The inhibition of the Src-kinase family could be important clinically because these kinases are downstream of FLT3. In the event of FLT3 mutation, the inhibition of the Src-family kinases could still lead to proliferation inhibition.

[8] = Liver microsomal stability assay; format: in vitro ADME, mouse; conditions: compared to the other analogs
[9] = tested on: MV4-11; experiment: In vivo efficacy, NSG mice injected with MV4-11; conditions: 25 mg/kg, three times per week, NSG mice with MV4-11
Procedure: Method: Six week old female NSG mice were injected intravenously with 1×10^6 logarithmically growing MV4-11 cells expressing luciferase (MV4-11). Luciferase expressing leukemia cells were imaged using the IVIS Xenogen system (Perkin Elmer, Waltham MA). On day of imaging, mice are injected IP with 150 mg/kg luciferin (Perkin Elmer, Waltham, MA), anaesthetized and then placed in imaging chamber. Maximal luminescence is recorded and then averaged among each treatment group. Ten days post cell injection, mice were imaged and then sorted into groups so that leukemic burden was similar and dosing started. Mice were dosed either with vehicle (10% DMSO/10% Tween 20/80% saline) or 25 mg/kg of compounds three times per week for the duration of the experiment. Mice were weighed and observed five days per week and imaged once per week.

[10] = tested on: MRC5; experiment: Selectivity, proliferation IC50 (normal cell line); format: cell-based; conditions: Homo sapiens, read-out: IC50 MRC5 (normal lung fibroblast)
Procedure: Cell lines were seeded into 96-well plates the afternoon prior to treatment. Approximately 18 hours later, compounds were diluted in dimethyl sulfoxide (DMSO) and added to cells. Plates were incubated for 72 hours and cells viability determined with CellTiter-Blue Cell Viability Assay (Promega, Madison, WI). Plates were read after 4 additional hours of incubation at 37° C. using plate reader (Bio-Tek, Winooski. VT). Data was analyzed and graphed using GraphPad Prism Software (Graphpad. La Jolla, CA).

[11] = target: FLT3 ITD (Homo sapiens, UniProt P36888)
Sequence of FLT3 ITD (P36888 whole entry, looked up, change not shown): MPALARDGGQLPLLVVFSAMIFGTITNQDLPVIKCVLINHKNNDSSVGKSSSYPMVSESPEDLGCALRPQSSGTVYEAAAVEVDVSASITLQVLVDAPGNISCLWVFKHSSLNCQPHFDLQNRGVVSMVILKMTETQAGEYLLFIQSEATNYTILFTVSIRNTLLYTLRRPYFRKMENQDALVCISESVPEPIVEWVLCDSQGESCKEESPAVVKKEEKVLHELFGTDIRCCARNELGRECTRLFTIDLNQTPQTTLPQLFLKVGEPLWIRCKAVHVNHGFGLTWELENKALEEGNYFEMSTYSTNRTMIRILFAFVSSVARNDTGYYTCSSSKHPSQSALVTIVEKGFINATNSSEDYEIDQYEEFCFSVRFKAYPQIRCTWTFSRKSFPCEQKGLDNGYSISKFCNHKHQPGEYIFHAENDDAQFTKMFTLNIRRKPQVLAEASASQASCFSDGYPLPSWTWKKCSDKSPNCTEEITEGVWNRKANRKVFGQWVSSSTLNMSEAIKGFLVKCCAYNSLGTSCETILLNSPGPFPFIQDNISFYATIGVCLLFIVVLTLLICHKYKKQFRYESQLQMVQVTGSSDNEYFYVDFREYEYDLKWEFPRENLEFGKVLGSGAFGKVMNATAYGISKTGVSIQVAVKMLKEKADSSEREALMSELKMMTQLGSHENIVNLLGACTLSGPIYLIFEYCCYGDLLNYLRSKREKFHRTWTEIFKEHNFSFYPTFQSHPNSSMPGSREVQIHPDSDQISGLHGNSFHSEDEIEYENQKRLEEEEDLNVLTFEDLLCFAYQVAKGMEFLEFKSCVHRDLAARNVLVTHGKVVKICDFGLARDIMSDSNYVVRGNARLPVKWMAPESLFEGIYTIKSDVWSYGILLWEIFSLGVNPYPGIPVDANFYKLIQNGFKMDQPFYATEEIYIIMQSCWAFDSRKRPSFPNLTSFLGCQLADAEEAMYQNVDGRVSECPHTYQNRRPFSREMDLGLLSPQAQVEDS

[12] = target: FLT3 (Homo sapiens (Human), UniProt P36888); experiment: Inhibition of kinase enzymatic activity (IC50); format: biochemical; conditions: in vitro
Sequence of FLT3 (P36888 27-993): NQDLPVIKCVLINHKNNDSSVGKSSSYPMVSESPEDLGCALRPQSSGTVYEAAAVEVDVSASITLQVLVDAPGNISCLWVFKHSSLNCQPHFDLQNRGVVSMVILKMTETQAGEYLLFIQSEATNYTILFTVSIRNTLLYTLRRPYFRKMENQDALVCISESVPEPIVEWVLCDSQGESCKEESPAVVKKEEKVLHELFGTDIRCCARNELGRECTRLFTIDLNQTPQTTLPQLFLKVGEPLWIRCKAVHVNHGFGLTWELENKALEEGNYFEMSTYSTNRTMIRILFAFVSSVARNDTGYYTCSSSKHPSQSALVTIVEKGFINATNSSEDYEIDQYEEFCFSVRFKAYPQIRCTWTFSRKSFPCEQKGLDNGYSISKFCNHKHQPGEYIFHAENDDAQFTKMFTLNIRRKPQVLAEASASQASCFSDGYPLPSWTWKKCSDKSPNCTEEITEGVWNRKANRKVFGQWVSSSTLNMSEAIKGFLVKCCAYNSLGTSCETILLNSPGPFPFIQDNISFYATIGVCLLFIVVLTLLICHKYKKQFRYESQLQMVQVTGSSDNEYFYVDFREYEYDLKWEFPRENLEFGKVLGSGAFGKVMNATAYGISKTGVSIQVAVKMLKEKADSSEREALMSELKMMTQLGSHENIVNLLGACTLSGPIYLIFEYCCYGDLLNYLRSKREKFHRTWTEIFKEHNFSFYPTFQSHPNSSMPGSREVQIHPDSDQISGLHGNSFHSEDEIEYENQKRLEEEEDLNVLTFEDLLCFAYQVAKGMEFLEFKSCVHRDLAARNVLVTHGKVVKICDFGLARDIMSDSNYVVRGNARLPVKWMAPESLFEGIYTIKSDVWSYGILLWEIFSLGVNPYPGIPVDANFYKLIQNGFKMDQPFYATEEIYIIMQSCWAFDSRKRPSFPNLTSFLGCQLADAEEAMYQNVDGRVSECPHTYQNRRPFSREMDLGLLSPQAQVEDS

CN(C)CC(O)CNC(=O)c1ccc(C#Cc2c(N)ncc3ccc(Cl)cc23)cc1 (centres unmarked) [HSM1702]
IC50 ([1]; 72 h, read-out: IC50 against MV4-11/uM): 0.003 µM | IC50 ([1]; FIG. 1, read-out: anticancer activities (IC50) against MV4-11): 0.003 µM | IC50 ([1]; Table 2, read-out: IC50 (nM) against MV4-11 (AML cell line)): 0.0055 ± 0.0013 µM

Cc1ccc(C(=O)Nc2ccc(CN3CCN(C)CC3)c(C(F)(F)F)c2)cc1C#Cc1c(N)ncc2ccc(Cl)cc12 [HSN286]
inhibition of MV4-11 proliferation in words [2]: potent | STAT3 phosphorylation (Western) [3]: inhibited | STAT5 phosphorylation (Western) [4]: inhibited | p-38 phosphorylation (Western) [5]: inhibited | FLT3 phosphorylation (Western) [6]: inhibited | Kd [7]: 2300 nM | stability in mouse liver microsomes [8]: preformed much better | in-vivo efficacy (survival) [9]: not efficacious | IC50 [10]: 1270 nM

Cc1ccc(C(=O)Nc2ccc(CN3CCN(C)CC3)c(C(F)(F)F)c2)cc1C#Cc1cnc(N)c2ncccc12 [HSN356, 3-((8-amino-1,7-naphthyridin-5-yl)ethynyl)-4-methyl-N-(4-((4-methylpiperazin-1-yl)methyl)-3-(trifluoromethyl)phenyl)benzamide]
IC50 FLT3 ITD enzymatic inhibition [11]: single digit | IC50 FLT3 enzymatic inhibition [12]: single digit
